Earlier results, collected in patent US20190320628A1, “A NON-HUMAN ANIMAL MODEL OF NEURODEGENERATIVE DISORDERS” (priority 2016, published 2019).

Columns and labels:
Wistar rats = details: KA alone
rats = details: initial KA dose 5 mg/kg i.p., subsequent doses tailored
animals = details: KA used to model human epilepsy, SE/cSE-based models

What does the source list for `C=C(C)[C@H]1CN[C@H](C(=O)O)[C@H]1CC(=O)O` [KA, kainic acid]?
Non-responders among the surviving animals (Wistar rats): 20-40%; Mortality (Wistar rats; SE terminated by diazepam): up to 30%; Mortality rate (rats): around 15%; Mortality (animals): up to 50%; Non-responders (surviving animals that never exhibit spontaneous seizures) (animals): up to 50%
